Results on two compounds are retold here after US20230174951A1, “PHENOL-RICH GRAPES” (THE STATE OF ISRAEL, MINISTRY OF AGRICULTURE & RURAL …, priority 2020, published 2023).

The subject of data set [1] is AroG*+STS28 (Line 16) cells. Nature of the data set: Effect of Phe and p-CA concentrations on cell growth. Type of data set: cell-based, Vitis vinifera. The protocol: The concentrations of Phe and p-CA chosen for the feeding experiments were those in which cell viability was not affected, but cell growth was slower. To compare the growth rate, the fresh Weight (FW) of the cells per ml growth media was measured at day 7 of growth. […] Even though the viability of the treated with 0.5-5 mM Phe and 0.1-0.3 mM p-CA was similar, their growth pattern differed with formation of larger clumps in the liquid media (FIG. 6C).

As to `N[C@@H](Cc1ccccc1)C(=O)O` [Phe, Phenylalanine], the “weight of treated cells” value in data set [1] (1, 2 and 5 mM, day 7) is “weighed significantly less”.
As for `O=C(O)/C=C/c1ccc(O)cc1` [p-Coumaric acid, p-coumaric acid], the water solubility entry in the data set “Water solubility” is recorded as “not water soluble”. Moreover, the cell growth entry in data set [1] (0.3 mM, compared to cells in 0.2% ethanol) is reported as “slower growth”.
